According to PubChem BioAssay (NCI):
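Assay format: 96-well plates, 48-hour exposure. Abbreviation: GI50, concentration required for 50% inhibition of growth. TGI marks complete inhibition of growth.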

Tests used:
Assay in all cases: NCI tumour cell line growth inhibition, 48 h
[1] = test system: LXFL 529 NSCLC
[2] = test system: DMS 273 small cell lung
[3] = test system: MDA-MB-435
[4] = test system: SNB-78 CNS
[5] = test system: HOP-18 NSCLC
[6] = test system: DMS 114 small cell lung
[7] = test system: RXF-631 renal
[8] = test system: MDA-N
[9] = test system: SN12K1 renal
[10] = test system: P388 leukemia

Row | Structure (SMILES) | TGI [1] [µM] | TGI [2] [µM] | TGI [3] [µM] | TGI [4] [µM] | TGI [5] [µM] | GI50 [3] [µM] | other results
1 | COc1ccc(CC(C#N)c2cc(OC)c(OC)c(OC)c2)cc1 (stereo unspecified) | > 100 | 0.405 | > 100 | > 100 |  |  | 
2 | CC(=O)OC1C/C(C)=C/[C@H](O)CC(C)/C=C/[C@@]2(C)CCC(C(C)(C)O)C12 (stereo partly specified) | > 100 | > 100 |  | > 100 | > 100 |  | TGI [6]: > 100 µM; TGI [7]: > 100 µM
3 | COC(=O)C1CCC(N2C(=O)CCC2C(=O)OC)=N1 (stereo unspecified) | > 100 | > 100 |  | > 100 | > 100 |  | TGI [7]: > 100 µM
4 | CC(C)[C@H](O)C(=O)N[C@H]1Cc2ccc3c(c2)[C@]24C5=C(N=C(O5)[C@H](C(C)C)NC1=O)c1nc(Cl)c(o1)-c1c(Cl)[nH]c5cccc(c15)-c1cccc2c1N[C@H]4O3 |  |  |  |  |  |  | TGI [8]: 0.00429 µM
5 | O=C(Nn1c2c(sc1=NC1CC1)C(=O)c1ccccc1C2=O)c1cc2ccc1CCc1ccc(cc1)CC2 |  |  | 3.23 |  |  | 1.76 | 
6 | CCCCCC/C=C\CCCCCCCCCc1c(O)c(OC)cc(O)c1CN(C)C |  |  | 20 |  |  |  | TGI [8]: 32.2 µM
7 | Cc1cccc(NC(=O)Cc2nc3ccccc3s2)c1C | > 100 | > 100 |  |  |  |  | TGI [6]: > 100 µM; TGI [7]: > 100 µM
8 | C=CC1=C(C)C(Cc2[nH]c(/C=c3\[nH]/c(=C/C4=NC(=O)C(C)/C4=C\C)c(C)c3CCC(=O)O)c(CCC(=O)OC)c2C)NC1=O (stereo unspecified) |  |  | 62 |  |  | 23.9 | GI50 [8]: 25.6 µM; TGI [8]: 66.7 µM
9 | c1cc(-c2cnn3nc(N4CCOCC4)ccc23)nc(NC2CC2)n1 |  |  | > 25 |  |  | 9.94 | 
10 | CCC(C)c1cnc(CC(C)C)c(=O)[nH]1 (stereo unspecified) |  |  | > 100 |  |  |  | TGI [8]: > 100 µM
11 | Oc1oc(-c2ccccc2)nc1/C=C1/C=NN=N1 |  |  | > 100 |  |  |  | TGI [8]: > 100 µM
12 | O=C1C(Nc2cccc(O)c2)=C(Sc2ccc(Cl)cc2)C(=O)N1Cc1ccccc1 |  |  | 20 |  |  | 6.43 | 
13 | C[C@@]1(CBr)C[C@@](C)(/C=C/Cl)[C@@H](Cl)C[C@H]1Cl | 21.7 | 22.8 |  | 14 | 26.4 |  | TGI [6]: 25.3 µM; TGI [7]: 24.2 µM
14 | Cc1sc2c(c1C)C(c1ccc(Cl)cc1)=N[C@@H](CC(=O)Nc1ccc(O)cc1)c1nnc(C)n1-2 |  |  | 19 |  |  | 0.399 | 
15 | CN(C(=O)C1CC1)C1C2CN3CCC(O2)C13 (stereo unspecified) | > 100 | > 100 |  | > 100 | > 100 |  | TGI [6]: > 100 µM
16 | COc1cc2c(cc1-c1c(C)noc1C)ncc1[nH]c(=O)n([C@H](C)c3ccccn3)c12 |  |  | > 100 |  |  | 0.474 | 
17 | CC(=O)Oc1cc(OC(C)=O)c2cc3c(cc2c1OC(C)=O)C(=O)C1(CCCC1)C3=O |  | 35.8 |  | 50 | 38.5 |  | TGI [6]: 31.6 µM
18 | CN(C)C(=S)/N=c1\ssc(=S)n1Cc1ccccn1 | > 100 |  |  | > 100 | > 100 |  | TGI [7]: > 100 µM
19 | CN(C)CCC(=O)NCc1c2nc3ccccc3nc2n2ccccc12 |  |  | > 100 |  |  | 67.8 | 

Row | Structure (SMILES) | TGI [1] [µM] | TGI [2] [µM] | TGI [3] [µM] | TGI [4] [µM] | TGI [5] [µM] | GI50 [3] [µM] | other results
20 | CC(=O)[CH-]C(=O)c1ccccc1.CC(=O)[CH-]C(=O)c1ccccc1.CC12CC3(C)CC(C)(C1)CC([O-])(C2)C3.CC[O-].[Ti+4] |  | > 100 |  |  | > 100 |  | GI50 [5]: 37.4 µM; GI50 [2]: 33.4 µM
21 | C=C(CN(CCN1CCOCC1)CC(=C)c1ccc(C(=O)Nc2ccccc2N)cc1)c1ccc(C(=O)Nc2ccccc2N)cc1 |  |  | 28.5 |  |  | 8.67 | 
22 | Cc1cccc2cc3ccc4ccccc4c3cc12 |  |  | > 100 |  |  |  | TGI [8]: > 100 µM
23 | COC(=O)NN=C1C(C)(C)C(=NNC(=O)OC)C1(C)C | > 100 | > 100 |  | > 100 | > 100 |  | TGI [6]: > 56.7 µM; TGI [7]: > 100 µM
24 | O=C(Nc1ccc([N+](=O)[O-])cc1)c1cc2ccccc2cc1O |  |  | 1.64 |  |  | 0.321 | 
25 | CCCCc1oc2ccccc2c1C(=O)c1cc(I)c(OCCN(CC)CC)c(I)c1 |  | 7.74 | 6.53 | 25 | 1.29 | 2.41 | TGI [9]: 7.45 µM; TGI [10]: 11.2 µM
26 | CC(C)(C)[Si](Nc1ccccc1)(c1ccccc1)c1ccccc1 |  | 27.3 |  | 30.4 | 26.7 |  | TGI [6]: 26.3 µM; TGI [7]: 29.6 µM
27 | COc1cc(C(=O)/C=C/c2c(-c3cccs3)nc3ccccn23)cc(OC)c1OC |  |  | 9.52 |  |  | 2.49 | 
28 | O=C1/C(=C/c2ccc(C(F)(F)F)cc2)COc2ccc(O)cc21 |  |  | 6.54 |  |  | 2.41 | 
29 | O/N=C1/C(=C/c2ccc(Cl)cc2)CCCC1C(NO)c1ccc(Cl)cc1 (stereo unspecified) | > 100 | 41.2 |  | 48.5 | 55.1 |  | TGI [6]: 81.8 µM; TGI [7]: 41 µM
30 | CO[C@H]1/C=C/C[C@H](C)[C@@H](C)S(=O)(=O)NC(=O)c2ccc3c(c2)N(C[C@@H]2CC[C@H]21)C[C@@]1(CCCc2cc(Cl)ccc21)CO3 |  |  | 3.14 |  |  | 1.48 | 
31 | NC(N)=N/N=C(/c1ccccc1)c1ccc(O)cc1O |  |  | > 100 |  |  |  | TGI [8]: 28.6 µM
32 | O=C(Cc1nc2ccccc2s1)C(=O)Nc1ccc(Cl)cc1Cl | > 100 | > 100 |  | > 100 |  |  | TGI [7]: > 100 µM
33 | CN(C)NC(=S)NC12CC3CC(CC(C3)C1)C2 | > 100 | > 100 |  | > 100 | > 100 |  | TGI [6]: > 100 µM
34 | CCCCCC/C=C/CCCCCCCc1cccc(O)c1C(=O)O | > 100 | > 100 |  | > 100 | > 100 |  | TGI [6]: > 100 µM; TGI [7]: > 100 µM
35 | CN(C)CCN1C(=O)c2cccc3c(-c4ccc5ncn(C6CCCCC6)c5c4)ccc(c23)C1=O |  |  | 11.1 |  |  | 2.71 | 
36 | C=C1C(=O)O[C@H]2[C@H]1CC/C(COC(=O)NCc1cccc(OC)c1)=C\CC[C@@]1(C)O[C@@H]21 |  |  | 3.22 |  |  | 1.5 | 
37 | C[n+]1ccc2[nH]c3ccccc3c2c1 | > 100 | > 100 |  | > 100 | > 100 |  | 
